# Experiments:
# barnyardgrass [1] = assay: Test E preemergence; assay type: in vivo, Echinochloa crus-galli; conditions: for Barnyardgrass plant response rating: scale 0 to 100 (0 no effect, 100 complete control); for Plant response rating, Barnyardgrass: scale 0 to 100, 0 no effect, 100 complete control
# Procedure, shortened: (§1)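 Test chemicals formulated in a non-phytotoxic solvent mixture containing a surfactant were applied preemergence to seeds in silt loam soil or postemergence to plants at the 1- to 4-leaf stage in potting mix. After 14 to 21 days in a greenhouse, injury was visually rated against controls on a 0-100 scale (0 = no effect, 100 = complete control).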
# velvetleaf = assay: Test E preemergence; assay type: in vivo, Abutilon theophrasti; conditions: for Velvetleaf plant response rating: scale 0 to 100 (0 no effect, 100 complete control); for Plant response rating, Velvetleaf: scale 0 to 100, 0 no effect, 100 complete control
# Procedure, shortened: as §1
# surinam grass = assay: Test E preemergence; assay type: in vivo, Brachiaria decumbens; conditions: for Surinam Grass plant response rating: scale 0 to 100 (0 no effect, 100 complete control); for Plant response rating, Surinam Grass: scale 0 to 100, 0 no effect, 100 complete control
# Procedure, shortened: as §1
# barnyardgrass [2] = assay: Test C flooded paddy test; assay type: in vivo, Echinochloa crus-galli; conditions: Flood, scale 0 to 100 (0 no effect, 100 complete control), 13 to 15 days
# Procedure, shortened: (§2)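 In-water treatment: compound dosed into 3 cm flood over soil, water level unchanged throughout. Controls run alongside; visual assessment at day 13–15.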
# arrowleaf sida = assay: Test E preemergence; assay type: in vivo, Sida rhombifolia; conditions: for Arrowleaf Sida plant response rating: scale 0 to 100 (0 no effect, 100 complete control); for Plant response rating, Arrowleaf Sida: scale 0 to 100, 0 no effect, 100 complete control
# Procedure, shortened: as §1
# cocklebur = assay: Test E preemergence; assay type: in vivo, Xanthium strumarium; conditions: for Cocklebur plant response rating: scale 0 to 100 (0 no effect, 100 complete control); for Plant response rating, Cocklebur: scale 0 to 100, 0 no effect, 100 complete control
# Source text: Seeds of plant species selected from corn (Zea mays), soybean (Glycine max), velvetleaf (Abutilon theophrasti), lambsquarters (Chenopodium album), wild poinsettia (Euphorbia heterophylla), palmer pigweed (Amaranthus palmeri), waterhemp (common waterhemp, Amaranthus rudis), surinam grass (Brachiaria decumbens), large (Lg) crabgrass (Digitaria sanguinalis), Brazilian crabgrass (Digitaria horizontalis), fall panicum (Panicum dichotomiflorum), giant foxtail (Setaria faberii), green foxtail (Setaria viridis), goosegrass (Eleusine indica), johnsongrass (Sorghum halepense), ragweed (common ragweed, Ambrosia elatior), barnyardgrass (Echinochloa crus-galli), sandbur (southern sandbur, Cenchrus echinatus), arrowleaf sida (Sida rhombifolia), Italian ryegrass (Lolium multiflorum), dayflower (Virginia (VA) dayflower, Commelina virginica), field bindweed (Convolvulus arvensis), morningglory (Ipomoea coccinea), nightshade (eastern black nightshade, Solanum ptycanthum), kochia (Kochia scoparia), yellow nutsedge (Cyperus esculentus), cocklebur (common cocklebur, Xanthium strumarium), smartweed (ladysthumb smartweed, and hairy beggarticks (Bidens pilosa), were planted into a silt loam soil and treated preemergence with test chemicals formulated in a non-phytotoxic solvent mixture which included a surfactant.
# At the same time, plants from these crop and weed species and also horseweed (Canada horseweed, Conyza canadensis), waterhemp_RES1, (ALS & Triazine resistant common waterhemp, Amaranthus rudis), and waterhemp_RES2, (ALS & HPPD resistant common waterhemp, Amaranthus rudis) were planted in pots containing Redi-Earth® planting medium (Scotts Company, 14111 Scottslawn Road, Marysville, Ohio 43041) comprising spaghnum peat moss, vermiculite, wetting agent and starter nutrients were treated with postemergence applications of test chemicals formulated in the same manner. Plants ranged in height from 2 to 18 cm for postemergence treatments (1- to 4-leaf stage). Treated plants and controls were maintained in a greenhouse for 14 to 21 days, after which time all species were compared to controls and visually evaluated. Plant response ratings, summarized in Table E, are based on a scale of 0 to 100 where 0 is no effect and 100 is complete control. A dash (-) response means no test result.
# large (Lg) crabgrass = assay: Test E preemergence; assay type: in vivo, Digitaria sanguinalis; conditions: for Crabgrass, Large plant response rating: scale 0 to 100 (0 no effect, 100 complete control); for Plant response rating, Crabgrass, Large: scale 0 to 100, 0 no effect, 100 complete control
# Procedure, shortened: as §1
# sedge, umbrella = assay: Test C flooded paddy test; assay type: in vivo, Cyperus difformis; conditions: Flood, scale 0 to 100 (0 no effect, 100 complete control), 13 to 15 days
# Procedure, shortened: as §2
# Brazilian crabgrass = assay: Test E preemergence; assay type: in vivo, Digitaria horizontalis; conditions: for Crabgrass, Brazil plant response rating: scale 0 to 100 (0 no effect, 100 complete control); for Plant response rating, Crabgrass, Brazil: scale 0 to 100, 0 no effect, 100 complete control
# Procedure, shortened: as §1
# lambsquarters = assay: Test E preemergence; assay type: in vivo, Chenopodium album; conditions: for Lambsquarters plant response rating: scale 0 to 100 (0 no effect, 100 complete control); for Plant response rating, Lambsquarters: scale 0 to 100, 0 no effect, 100 complete control
# Procedure, shortened: as §1
SMILES,"Barnyardgrass plant response rating (barnyardgrass [1]; 16 g ai/ha, preemergence)","Barnyardgrass plant response rating (barnyardgrass [1]; 31 g ai/ha, preemergence)","Plant response rating, Barnyardgrass (barnyardgrass [1]; preemergence, 125 g ai/ha)",Velvetleaf plant response rating (velvetleaf; 31 g ai/ha),Velvetleaf plant response rating (velvetleaf; 62 g ai/ha),"Plant response rating, Velvetleaf (velvetleaf; 125 g ai/ha)",Surinam Grass plant response rating (surinam grass; 31 g ai/ha),Surinam Grass plant response rating (surinam grass; 62 g ai/ha),"Plant response rating, Surinam Grass (surinam grass; 125 g ai/ha)","Arrowleaf Sida plant response rating (arrowleaf sida; 16 g ai/ha, preemergence)","Arrowleaf Sida plant response rating (arrowleaf sida; 31 g ai/ha, preemergence)","Plant response rating, Arrowleaf Sida (arrowleaf sida; preemergence, 125 g ai/ha)",Cocklebur plant response rating (cocklebur; 16 g ai/ha),Cocklebur plant response rating (cocklebur; 31 g ai/ha),"Crabgrass, Large plant response rating (large (Lg) crabgrass; 16 g ai/ha)","Crabgrass, Large plant response rating (large (Lg) crabgrass; 31 g ai/ha)","Crabgrass, Large plant response rating (large (Lg) crabgrass; 62 g ai/ha)","Plant response rating, Crabgrass, Large (large (Lg) crabgrass; 125 g ai/ha)","Crabgrass, Brazil plant response rating (Brazilian crabgrass; 16 g ai/ha)","Crabgrass, Brazil plant response rating (Brazilian crabgrass; 31 g ai/ha)",further results
FC(F)(F)c1cnn(-c2c(Cl)cccc2Oc2ncc(Cl)cn2)c1 [Compound 167],20,20,75,20,65,100,0,0,0,65,65,100,0,0,0,65,100,100,0,20,"Barnyardgrass plant response rating (barnyardgrass [1]; 62 g ai/ha, preemergence): 25; Plant response rating, Barnyardgrass (barnyardgrass [2]; 31 g ai/ha): 0; Plant response rating, Barnyardgrass (barnyardgrass [2]; 62 g ai/ha): 0; Plant response rating, Barnyardgrass (barnyardgrass [2]; 125 g ai/ha): 0; Plant response rating, Barnyardgrass (barnyardgrass [2]; 250 g ai/ha): 0; Arrowleaf Sida plant response rating (arrowleaf sida; 62 g ai/ha, preemergence): 100; Cocklebur plant response rating (cocklebur; 62 g ai/ha): 100; Plant response rating, Cocklebur (cocklebur; 125 g ai/ha): 90; Plant response rating, Sedge, Umbrella (sedge, umbrella; 31 g ai/ha): 60; Plant response rating, Sedge, Umbrella (sedge, umbrella; 62 g ai/ha): 70; Plant response rating, Sedge, Umbrella (sedge, umbrella; 125 g ai/ha): 80; Plant response rating, Sedge, Umbrella (sedge, umbrella; 250 g ai/ha): 85; Crabgrass, Brazil plant response rating (Brazilian crabgrass; 62 g ai/ha): 75; Plant response rating, Crabgrass, Brazil (Brazilian crabgrass; 125 g ai/ha): 100; Lambsquarters plant response rating (lambsquarters; 31 g ai/ha): 98; Lambsquarters plant response rating (lambsquarters; 62 g ai/ha): 100; Plant response rating, Lambsquarters (lambsquarters; 125 g ai/ha): 100"
N#Cc1cccc(Oc2ncc(F)cn2)c1-n1cc(Cl)cn1 [Compound 73],0,0,20,20,60,70,0,5,20,5,40,100,0,0,0,30,100,100,25,95,"Plant response rating, Barnyardgrass (barnyardgrass [1]; Preemergence, 62 g ai/ha): 0; Plant response rating, Barnyardgrass (barnyardgrass [1]; preemergence, 250 g ai/ha): 75; Velvetleaf plant response rating (velvetleaf; 16 g ai/ha): 0; Plant response rating, Velvetleaf (velvetleaf; 250 g ai/ha): 95; Surinam Grass plant response rating (surinam grass; 16 g ai/ha): 0; Plant response rating, Surinam Grass (surinam grass; 250 g ai/ha): 35; Plant response rating, Arrowleaf Sida (arrowleaf sida; Preemergence, 62 g ai/ha): 80; Plant response rating, Arrowleaf Sida (arrowleaf sida; preemergence, 250 g ai/ha): 100; Plant response rating, Cocklebur (cocklebur; 250 g ai/ha): 25; Plant response rating, Crabgrass, Large (large (Lg) crabgrass; 250 g ai/ha): 100; Crabgrass, Brazil plant response rating (Brazilian crabgrass; 62 g ai/ha): 100; Plant response rating, Crabgrass, Brazil (Brazilian crabgrass; 125 g ai/ha): 100; Plant response rating, Crabgrass, Brazil (Brazilian crabgrass; 250 g ai/ha): 100; Lambsquarters plant response rating (lambsquarters; 16 g ai/ha): 10; Lambsquarters plant response rating (lambsquarters; 31 g ai/ha): 65; Lambsquarters plant response rating (lambsquarters; 62 g ai/ha): 98; Plant response rating, Lambsquarters (lambsquarters; 125 g ai/ha): 100; Plant response rating, Lambsquarters (lambsquarters; 250 g ai/ha): 100"
